Source: patent US6770649B2, “1-[1-(hetero)aryl-1-perhydroxyalkylmethyl]-piperazine compounds, process for their preparation and pharmaceutical compositions containing them” (Solvay Pharmaceuticals GmbH, priority 2001, dated 2004)

Target: T1, human NK-2 receptor (Homo sapiens, UniProt P21452)
T1 construct: expressed in transfected cells; host or cells: CHO cells (membrane preparation)
T1 sequence (P21452 1-398): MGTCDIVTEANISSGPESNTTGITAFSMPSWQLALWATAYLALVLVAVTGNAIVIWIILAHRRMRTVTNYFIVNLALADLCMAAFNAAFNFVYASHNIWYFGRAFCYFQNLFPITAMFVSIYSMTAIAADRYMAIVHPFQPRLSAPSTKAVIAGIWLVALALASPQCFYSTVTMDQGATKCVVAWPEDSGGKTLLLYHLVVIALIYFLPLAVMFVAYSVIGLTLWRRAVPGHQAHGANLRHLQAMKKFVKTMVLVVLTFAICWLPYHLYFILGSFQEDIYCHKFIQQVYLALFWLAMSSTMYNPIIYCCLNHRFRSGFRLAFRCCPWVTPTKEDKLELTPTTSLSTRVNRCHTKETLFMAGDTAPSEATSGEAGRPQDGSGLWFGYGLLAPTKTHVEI
Assay: Binding power of the test substances to NK-2 receptors in vitro ([3H]-SR 48968 displacement, CHO cell membranes)
Settings: displacement of [3H]-SR 48968, 90 min incubation, average of at least three measurements, 10^-6 to 10^-10 mol/l, read-out: pKi, affinity to human NK-2 receptors (converted)
Method: 1. Determination of the Binding Power of the Test Substances to NK-2 Receptors in vitro
The affinity of the test substances to human NK-2 receptors was measured in vitro. The ability of the test substances to displace the selective NK-2 receptor antagonist SR 48968 (=saredutant) used as reference ligand from its corresponding bond was determined.
The receptor binding studies were carried out with radioactively marked [^3H]-SR 48968 (from Amersham) as ligand. For the binding test, different samples of a membrane preparation of CHO cells (=[…]), which express the human NK-2 receptor (for preparation, see N. P. Gerard et al., Journal of Biological Chemistry 265/33 (1990) 20455-20462), were incubated for 90 minutes (=min.) with a solution of the marked ligand, with the incubation mixtures containing no test substance or additions of different concentrations of test substance. Then in each case the membrane-bound ligands in the samples were separated from free ligands by filtration. The fraction remaining in the filter was washed several times with buffer solution, before its radioactivity was measured using a liquid scintillation counter. That concentration which effects half-maximum displacement of the bound reference ligand was determined as IC50 of the respective test substance. The inhibition constant (Ki value) of the test substance was calculated from the respective IC50 value, and was stated as the negative logarithmised value thereof (pKi).
For the compounds of Examples 1 to 39, the affinity to human NK-2 receptors was determined in each case by at least three measurements of the test substances in concentration series of 10^−6 to 10^−10 mol/l. If several measurements were performed, the average thereof was listed each time.

CN(CC(CCN1CCN(C(c2ccco2)[C@H](O)[C@@H](O)[C@H](O)CO)CC1)c1ccc(Cl)c(Cl)c1)C(=O)c1ccccc1 (mixture of isomers) [Example 13] and CN(C[C@@H](CCN1CCN(C(c2ccsc2)[C@H](O)[C@@H](O)[C@H](O)CO)CC1)c1ccc(Cl)c(Cl)c1)C(=O)c1ccccc1 (stereo partly drawn) [Example 1, N-((2S)-2-(3,4-dichlorophenyl)-4-{4-[(2S,3R,4R)-2,3,4,5-tetrahydroxy-1-(3-thienyl)pentyl]-1-piperazinyl}butyl)-N-methylbenzamide] cannot be ordered by Ki: ≤ 0.01 µM for the first, ≤ 0.001 µM for the second.

With CC(=O)OC[C@@H](OC(C)=O)[C@H](OC(C)=O)[C@@H](OC(C)=O)C(c1ccsc1)N1CCN(CC[C@H](CN(C)C(=O)c2ccccc2)c2ccc(Cl)c(Cl)c2)CC1 (stereo partly drawn) [Example 14] the Ki was ≤ 0.01 µM.
